Data: PMC6410080 (Viruses, 2019)
Read-outs that look alike come from different tables or passages of the source.

How the values were obtained:
SFV [1] = assay: microbe, parasite or virus in culture; assay type: cell-based, Semliki Forest virus; conditions: for % inhibition (SFV screen): 10 µM
DENV-2 = DENV-2 infection assay / secondary screen (E protein staining); assay type: cell-based, dengue virus serotype 2; conditions: for % inhibition (DENV-2 screen): 10 µM
HeLa Kyoto cells [2] = conditions: 10 µM
Huh7 cells [3] = conditions: 10 µM
SINV = assay: microbe, parasite or virus in culture; assay type: cell-based, Sindbis virus; conditions: read-out: IC50 SINV
DENV-1 = assay: microbe, parasite or virus in culture; assay type: cell-based, dengue virus
DENV-3 = assay: microbe, parasite or virus in culture; assay type: cell-based, dengue virus
ZIKV [4] = assay: microbe, parasite or virus in culture; assay type: cell-based, Zika virus
YF17D = assay: organism not typed; assay type: cell-based, yellow fever 17D
HCV = assay: microbe, parasite or virus in culture; assay type: cell-based, hepatitis C virus
VSV VLP = assay: microbe, parasite or virus in culture; assay type: cell-based, vesicular stomatitis virus; conditions: read-out: IC50 VSV
RABV VLP = assay: microbe, parasite or virus in culture; assay type: cell-based, rabies virus; conditions: read-out: IC50 RABV
H5N1 VLP = assay: microbe, parasite or virus in culture; assay type: cell-based, influenza H5N1; conditions: for IC50: read-out: IC50 H5N1
EBOV VLP = assay: microbe, parasite or virus in culture; assay type: cell-based, Ebola virus
HIV-1 = assay: microbe, parasite or virus in culture; assay type: cell-based, human immunodeficiency virus type 1; conditions: for IC50: read-out: IC50 HIV
HSV-1 = assay: microbe, parasite or virus in culture; assay type: cell-based, herpes simplex virus 1; conditions: for IC50: read-out: IC50 HSV (Vero)
VACV = assay: microbe, parasite or virus in culture; assay type: cell-based, vaccinia virus; conditions: for IC50: read-out: IC50 VACV
SFV [5] = assay type: cell-based, Semliki Forest virus
viruses/VLPs tested = assay type: cell-based
HeLa Kyoto cells [6] = system: HeLa Kyoto cells
Huh7 cells [7] = conditions: human
in vitro [8] = conditions: human, % viability (SFV screen)
in vitro [9] = conditions: human
ZIKV [10] = conditions: AG129 mice
[11] = system: Renilla luciferase expression (protein synthesis); assay type: cell-based
Huh7 cells [12] = assay: MTT assay, Huh7 cells; conditions: for TC50 DENV-2 (7 + 17 h): Huh7, compounds 7 h then compound-free media 17 h; for TC50 DENV-2 (24 h): Huh7, compounds 24 h
[13] = Huh7, MOI 1, 24 h, compared to DMSO-treated controls
[14] = Huh7, compounds 7 h then media replaced for 17 h, read-out: IC50 DENV-2 (7 + 17 h)
[15] = Huh7, compounds for entire 24 h, read-out: IC50 DENV-2 (24 h)

C=CCN1CC[C@]23c4c5ccc(O)c4O[C@@H]2/C(=N/N=C2\CC[C@@]4(O)C6Cc7ccc(O)c8c7[C@@]4(CCN6CC=C)[C@@H]2O8)CC[C@@]3(O)C1C5.Cl.Cl [Naloxonazine dihydrochloride]
% inhibition (SFV screen) (SFV [1]): 70.80%
% inhibition (DENV-2 screen) (DENV-2): 16.23%
% viability (SFV screen) (HeLa Kyoto cells [2]): 87.36%
% viability (DENV-2 screen) (Huh7 cells [3]): 111.66%

C=C1C(=O)O[C@H]2[C@H]1CC/C(C)=C/CC[C@@]1(C)O[C@@H]21 [Parthenolide]
% inhibition (SFV screen) (SFV [1]): 98.23%
IC50 (SFV [1]; Semliki Forest virus, HeLa Kyoto, read-out: IC50 SFV (7 h)): 3.3 µM
inhibition at 10 µM (SFV [1]; Semliki Forest virus, M-HeLa, 7 h, read-out: % inhibition (SFV screen)): 101%
inhibition at 10 µM (DENV-2; Dengue virus, DENV2, Huh-7, 24 h, read-out: % inhibition (DENV-2 screen)): 91.2%
IC50 (DENV-2; Dengue virus, DENV2, Huh-7, 24 h, read-out: IC50 DENV-2 (7 + 17 h)): 12.2 µM
IC50 (DENV-2; Dengue virus, DENV2, Huh-7, 24 h, read-out: IC50 DENV-2 (24 h)): 7.5 µM
IC50 (SINV; Sindbis virus, HeLa Kyoto): 3.2 µM
IC50 (DENV-1; Dengue virus, DENV1, Huh-7, read-out: IC50 DENV-1): 10 µM
IC50 (DENV-3; Dengue virus, DENV3, Huh-7, read-out: IC50 DENV-3): 15.8 µM
IC50 (ZIKV [4]; Zika virus, Huh-7, read-out: IC50 ZIKV): 6.1 µM
IC50 (YF17D; Huh-7, read-out: IC50 YF17D): 6.4 µM
IC50 (HCV; Hepatitis C virus, Huh7.5, read-out: IC50 HCV): 5.6 µM
IC50 (VSV VLP; Vesicular stomatitis virus, HeLa Kyoto, 24 h): 2.6 µM
IC50 (RABV VLP; Lyssavirus rabies, HeLa Kyoto, 24 h): 3.8 µM
IC50 (H5N1 VLP; Influenza A virus, H5N1, HeLa Kyoto, 48 h): 19.4 µM
IC50 EBOV (EBOV VLP): Toxic
IC50 (HIV-1; Human immunodeficiency virus 1, 24 h): 3.7 µM
IC50 HSV (Vero) (HSV-1; virus, Vero cells, 8 h): No inhibition
IC50 (VACV; Orthopoxvirus vaccinia, HeLa Kyoto, 8 h): 5 µM
Activity when added before SFV or 30 and 60 min after internalisation (SFV [5]): minor but reproducible decrease in activity
Time of Addition (SFV [5]): Before and after fusion
Viruses Inhibited (viruses/VLPs tested): Unclear pattern
TC50 SFV (7 h) (HeLa Kyoto cells [6]; human, 7 h): 11.7 µM
TC50 SFV (7h) (HeLa Kyoto cells [6]; human, 7 h): 11700 µM
TC50 DENV-2 (7 + 17 h) (Huh7 cells [7]): 35.8 µM
TC50 DENV-2 (24 h) (Huh7 cells [7]; 24 h): 11.9 µM
% viability (SFV screen) (HeLa Kyoto cells [2]; human): 74.22%
viability at 10 µM (in vitro [8]): 56.8%
viability at 10 µM (in vitro [9]): 71.4%

CC(C)OC(=O)[C@H](C)N[P@](=O)(OC[C@H]1O[C@@H](n2ccc(=O)[nH]c2=O)[C@](C)(F)[C@@H]1O)Oc1ccccc1 [Sofosbuvir]
Infectious virus in the blood at day 7 p.i. (ZIKV [10]; immunofocus assay): cleared infectious virus from the blood by day 7
ZIKV blood titres at day 1 p.i. (ZIKV [10]; qRT-PCR and immunofocus assay, vs untreated): significantly reduced blood titres

O=[N+]([O-])c1ccc2c(c1)S(=O)(=O)C=C2 [Stattic]
% inhibition (SFV screen) (SFV [1]): 95.82%
% inhibition (DENV-2 screen) (DENV-2; [13]): 87.08%
IC50 (DENV-2; [14]): 3 µM
IC50 (DENV-2; [15]): 0.9 µM
IC50 (SINV): 3.6 µM
IC50 (ZIKV [4]; read-out: IC50 ZIKV): 4 µM
IC50 (YF17D; read-out: IC50 YF17D): 4.9 µM
IC50 (HCV; read-out: IC50 HCV): 3.7 µM
IC50 (RABV VLP): 3.2 µM
IC50 H5N1 (H5N1 VLP): Toxic
IC50 EBOV (EBOV VLP): Toxic
IC50 (HIV-1): 3.2 µM
IC50 (HSV-1): 5.2 µM
IC50 (VACV): 4.1 µM
Decrease of Renilla signal (protein synthesis) [11]: more than 50%
Inhibition of protein synthesis at lower concentrations [11]: lose their inhibitory activity on protein synthesis
Activity when added before SFV or 30 and 60 min after internalisation (SFV [5]): No difference
Time of Addition (SFV [5]): After fusion
Viruses Inhibited (viruses/VLPs tested): All tested
TC50 SFV (7 h) (HeLa Kyoto cells [6]): 7.8 µM
TC50 SFV (7h) (HeLa Kyoto cells [6]): 7800 µM
% viability (SFV screen) (HeLa Kyoto cells [2]): 64.89%
% viability (DENV-2 screen) (Huh7 cells [3]): 60.49%
TC50 DENV-2 (7 + 17 h) (Huh7 cells [12]): 17.3 µM
TC50 DENV-2 (24 h) (Huh7 cells [12]): 9.7 µM

CC(=O)/C=C1\C(=O)N(C)c2ccccc21 [Supercinnamaldehyde]
% inhibition (SFV screen) (SFV [1]): 89.06%
% inhibition (DENV-2 screen) (DENV-2; [13]): 64.49%
IC50 (DENV-2; [14]): 15.4 µM
IC50 (DENV-2; [15]): 15 µM
IC50 (SINV): 24.9 µM
IC50 (DENV-1; read-out: IC50 DENV-1): ~22.7 µM
IC50 (DENV-3; read-out: IC50 DENV-3): 12.2 µM
IC50 ZIKV (ZIKV [4]): No inhibition
IC50 (YF17D; read-out: IC50 YF17D): 7.6 µM
IC50 (HCV; read-out: IC50 HCV): 15.8 µM
IC50 (VSV VLP): 14.6 µM
IC50 (RABV VLP): 21.6 µM
IC50 (H5N1 VLP): 17.5 µM
IC50 (EBOV VLP; read-out: IC50 EBOV): 21.2 µM
IC50 HIV (HIV-1): No inhibition
IC50 (HSV-1): 25.2 µM
IC50 VACV (VACV): No inhibition
Activity when added before SFV or 30 and 60 min after internalisation (SFV [5]): No difference
Time of Addition (SFV [5]): After fusion
TC50 SFV (7 h) (HeLa Kyoto cells [6]): 40.5 µM
TC50 SFV (7h) (HeLa Kyoto cells [6]): 40500 µM
% viability (SFV screen) (HeLa Kyoto cells [2]): 69.48%
% viability (DENV-2 screen) (Huh7 cells [3]): 90.32%
TC50 DENV-2 (7 + 17 h) (Huh7 cells [12]): 59.6 µM
TC50 DENV-2 (24 h) (Huh7 cells [12]): 25.8 µM
